The source made the active and inactive calls. The rule behind the calls is not given here.
What was measured:
[1] = molecular target: NB7+Caspase-8; experiment: compound enhancement of TRAIL-induced cell killing – NB7 cells plus caspase-8, luminescence, panel, dose response (AID 652002); conditions: NB7 neuroblastoma +caspase-8, TRAIL sensitization, luminescence viability, with TRAIL
[2] = as above; conditions: NB7 neuroblastoma +caspase-8, no TRAIL, compound-alone cytotoxicity counter-screen, luminescence viability, NB7+Caspase-8
[3] = molecular target: Tumor necrosis factor receptor superfamily member 10B (Homo sapiens) (UniProt O14763); experiment: as above; conditions: NB7 neuroblastoma +caspase-8, TRAIL sensitization, luminescence viability; NB7+Caspase-8; with TRAIL, mean of runs
Tumor necrosis factor receptor superfamily member 10B (Homo sapiens), sequence (O14763 whole entry, looked up): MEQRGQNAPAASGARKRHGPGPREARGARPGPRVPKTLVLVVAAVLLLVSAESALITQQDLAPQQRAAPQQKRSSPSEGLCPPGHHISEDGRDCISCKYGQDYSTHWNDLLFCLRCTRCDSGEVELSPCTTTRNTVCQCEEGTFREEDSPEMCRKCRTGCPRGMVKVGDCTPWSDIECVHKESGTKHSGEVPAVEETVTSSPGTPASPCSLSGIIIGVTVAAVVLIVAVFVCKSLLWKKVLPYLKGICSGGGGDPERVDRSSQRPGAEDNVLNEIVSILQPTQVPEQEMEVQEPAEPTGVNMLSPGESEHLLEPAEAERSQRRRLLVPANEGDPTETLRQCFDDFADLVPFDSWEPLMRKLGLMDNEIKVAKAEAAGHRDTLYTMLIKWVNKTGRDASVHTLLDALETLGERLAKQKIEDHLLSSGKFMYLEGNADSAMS

[4] = run 1, single replicate panel EC50
[5] = run 2, single replicate panel EC50

For COc1ccc(/C(C)=N/Nc2nncc3ccccc23)cc1, the EC50 [1, 4] was 7.33 µM, the EC50 [1, 5] was greater than 12.5 µM and the EC50 ([2]; mean of runs) was > 12.5 µM (inactive). The EC50 [2, 4] was greater than 12.5 µM, the EC50 [2, 5] was greater than 12.5 µM and the EC50 [3] was “inactive”.
For CC1(C)N=C(N)N=C(N)N1c1ccc(Oc2ccc(Cl)cc2)c(Cl)c1, the EC50 [1, 4] was 1.33 µM, the EC50 [1, 5] was 0.948 µM and the EC50 ([2]; mean of runs) was “inactive”. The EC50 [2, 4] was 1.64 µM, the EC50 [2, 5] was 0.423 µM and the EC50 [3] was “inactive”.
With O=c1[nH]c(=S)[nH]c2c1C(c1ccc(Cl)c(Cl)c1)OC(CCc1ccccc1)C2 (stereo not given) the EC50 [1, 4] was greater than 12.5 µM, the EC50 [1, 5] was greater than 12.5 µM and the EC50 ([2]; mean of runs) was > 12.5 µM (inactive). For the same compound, the EC50 [2, 4] was greater than 12.5 µM, the EC50 [2, 5] was greater than 12.5 µM and the EC50 [3] was > 12.5 µM (inactive).
In the case of O=C1CCCc2nc(N3CCc4ccccc43)ncc21, the EC50 [1, 4] is reported as greater than 12.5 µM, the EC50 [1, 5] is reported as greater than 12.5 µM and the EC50 ([2]; mean of runs) is reported as > 12.5 µM (inactive). For the same compound, the EC50 [2, 4] was greater than 12.5 µM, the EC50 [2, 5] was greater than 12.5 µM and the EC50 [3] was > 12.5 µM (inactive).
For C#CC(=O)CC1(CN(Cc2ccccc2)C(=O)OC(C)(C)C)CCCCC1, the EC50 [1, 4] was 3.12 µM, the EC50 [1, 5] was 7.51 µM and the EC50 ([2]; mean of runs) was “inactive”. The EC50 [2, 4] was 7.26 µM, the EC50 [2, 5] was 1.52 µM and the EC50 [3] was “inactive”.
With CCOC(=O)C(=C1Nc2ccccc2N1)n1c(-c2cccnc2)nc2ccccc21 the EC50 [1, 4] was greater than 12.5 µM, the EC50 [1, 5] was 9.47 µM and the EC50 ([2]; mean of runs) was “inactive”. The EC50 [2, 4] was greater than 12.5 µM, the EC50 [2, 5] was 10.5 µM and the EC50 [3] was “inactive”.
In the case of Cc1ccc(N=C/C(C(=O)C(F)(F)F)=C(\O)c2cccs2)cc1, the EC50 [1, 4] is reported as 6.11 µM, the EC50 [1, 5] is reported as 4 µM and the EC50 ([2]; mean of runs) is reported as “inactive”. The EC50 [2, 4] was greater than 12.5 µM, the EC50 [2, 5] was 1.87 µM and the EC50 [3] was “inactive”.
For CN(C(=O)COC(=O)c1cnc(Cl)c(Cl)c1)C1CCCCC1, the EC50 [1, 4] was greater than 12.5 µM, the EC50 [1, 5] was greater than 12.5 µM and the EC50 ([2]; mean of runs) was > 12.5 µM (inactive). The EC50 [2, 4] was greater than 12.5 µM, the EC50 [2, 5] was greater than 12.5 µM and the EC50 [3] was > 12.5 µM (inactive).
For CCOC(=O)c1sc(NC(=O)c2cccc(S(=O)(=O)N3CCc4ccccc43)c2)c(C#N)c1C, the EC50 [1, 4] was greater than 12.5 µM, the EC50 [1, 5] was greater than 12.5 µM and the EC50 ([2]; mean of runs) was > 12.5 µM (inactive). The EC50 [2, 4] was greater than 12.5 µM, the EC50 [2, 5] was greater than 12.5 µM and the EC50 [3] was > 12.5 µM (inactive).
In the case of CC(C)(C)OC(=O)NCc1ccc(NC(=O)c2nc[nH]c2C(=O)N[C@@H](Cc2ccccc2)C(=O)OCc2ccccc2)cc1, the EC50 [1, 4] is reported as greater than 12.5 µM, the EC50 [1, 5] is reported as greater than 12.5 µM and the EC50 ([2]; mean of runs) is reported as > 12.5 µM (inactive). The EC50 [2, 4] was greater than 12.5 µM, the EC50 [2, 5] was greater than 12.5 µM and the EC50 [3] was > 12.5 µM (inactive).
With COc1cc(SC#N)ccc1N=Cc1c(C)[nH]n(-c2ccc(Cl)cc2)c1=O the EC50 [1, 4] was greater than 12.5 µM, the EC50 [1, 5] was greater than 12.5 µM and the EC50 ([2]; mean of runs) was > 12.5 µM (inactive). The EC50 [2, 4] was greater than 12.5 µM, the EC50 [2, 5] was greater than 12.5 µM and the EC50 [3] was > 12.5 µM (inactive).
With CN(C)c1ccc(N/C=C/C(=O)c2ccco2)cc1 the EC50 [1, 4] was 7.78 µM, the EC50 [1, 5] was 6.42 µM and the EC50 ([2]; mean of runs) was “inactive”. For the same compound, the EC50 [2, 4] was 7.62 µM, the EC50 [2, 5] was greater than 12.5 µM and the EC50 [3] was “inactive”.
In the case of c1ccc(-c2cnc(-c3ccccn3)nn2)cc1, the EC50 [1, 4] is reported as greater than 12.5 µM, the EC50 [1, 5] is reported as 5.78 µM and the EC50 ([2]; mean of runs) is reported as “inactive”. For the same compound, the EC50 [2, 4] was 5.74 µM, the EC50 [2, 5] was 10 µM and the EC50 [3] was “inactive”.
With Cn1nnc(NC(=O)c2ccc(C(C)(C)C)cc2)n1 the EC50 [1, 4] was greater than 12.5 µM, the EC50 [1, 5] was 5.01 µM and the EC50 ([2]; mean of runs) was “inactive”. For the same compound, the EC50 [2, 4] was greater than 12.5 µM, the EC50 [2, 5] was 5.83 µM and the EC50 [3] was “inactive”.
For O=C(Nc1ccc2[nH]ccc2c1)c1cccs1, the EC50 [1, 4] was 3.97 µM, the EC50 [1, 5] was 5.19 µM and the EC50 ([2]; mean of runs) was “inactive”. The EC50 [2, 4] was 7.12 µM, the EC50 [2, 5] was 4.71 µM and the EC50 [3] was “inactive”.
With CCOC(=O)c1cccc(-[n+]2c(-c3ccccc3)cc(-c3ccccc3)cc2-c2ccccc2)c1 the EC50 [1, 4] was greater than 12.5 µM, the EC50 [1, 5] was greater than 12.5 µM and the EC50 ([2]; mean of runs) was > 12.5 µM (inactive). For the same compound, the EC50 [2, 4] was greater than 12.5 µM, the EC50 [2, 5] was greater than 12.5 µM and the EC50 [3] was > 12.5 µM (inactive).
For COc1ccc(-c2cc(C(=O)N/N=C/c3cccnc3)c3ccccc3n2)cc1, the EC50 [1, 4] was greater than 12.5 µM, the EC50 [1, 5] was greater than 12.5 µM and the EC50 ([2]; mean of runs) was “inactive”. The EC50 [2, 4] was 11.3 µM, the EC50 [2, 5] was greater than 12.5 µM and the EC50 [3] was > 12.5 µM (inactive).
In the case of Nc1ccccc1C(=O)NN=Cc1cccc([N+](=O)[O-])c1, the EC50 [1, 4] is reported as greater than 12.5 µM, the EC50 [1, 5] is reported as 7.52 µM and the EC50 ([2]; mean of runs) is reported as “inactive”. The EC50 [2, 4] was greater than 12.5 µM, the EC50 [2, 5] was 9.8 µM and the EC50 [3] was “inactive”.
In the case of CC(C)CCn1c(=O)c(C(=O)Nc2ccccc2S(N)(=O)=O)c(O)c2ccccc21, the EC50 [1, 4] is reported as greater than 12.5 µM, the EC50 [1, 5] is reported as greater than 12.5 µM and the EC50 ([2]; mean of runs) is reported as > 12.5 µM (inactive). For the same compound, the EC50 [2, 4] was greater than 12.5 µM, the EC50 [2, 5] was greater than 12.5 µM and the EC50 [3] was > 12.5 µM (inactive).
In the case of CC(C)Cc1nc2oc3c(Cl)ncnc3c2c2c1CCCC2, the EC50 [1, 4] is reported as greater than 12.5 µM, the EC50 [1, 5] is reported as greater than 12.5 µM and the EC50 ([2]; mean of runs) is reported as > 12.5 µM (inactive). The EC50 [2, 4] was greater than 12.5 µM, the EC50 [2, 5] was greater than 12.5 µM and the EC50 [3] was > 12.5 µM (inactive).
